Source: patent publication US7605173B2, “Pharmaceutical liquid composition containing pyridone derivative” (KDL, Inc., priority 2002, dated 2009)

How the values were obtained:
[1] = Dissolving Pirfenidone in diethylene glycol monoethyl ether (attainable concentration); assay type: physicochemical; conditions: solvent diethylene glycol monoethyl ether
Experimental: That is, the diethylene glycol monoethyl ether was charged to a suitable container and warmed to 60° C. The Pirfenidone was added while stirring and a yellowish solution was obtained by continuing the stirring until the mixture was transparent. All the remaining ingredients as listed in Table 1 were dissolved in water at 60° C. and this solution was poured into the above Pirfenidone solution and the stirring was continued until mixed uniformly. The so obtained solution was protected from the light.
That is, the diethylene glycol monoethyl ether was charged to a suitable container and warmed to 60° C., and the Pirfenidone was added while stirring and a yellowish solution was obtained by continuing the stirring until the whole became transparent. Furthermore, the α-tocopherol was added and water was added while stirring until mixed uniformly. Then, the hydroxypropyl cellulose was added because of its necessity and stirred until a homogenous dispersion was formed. Furthermore, the dispersion was allowed to stand overnight until the particles of hydroxypropyl cellulose, the concentrating agent, were expanded, and finally the product was homogenized. The so obtained dispersion was allowed to stand overnight and a solution in the desired concentration was obtained. The solution was homogenized again and protected from light.

[2] = cited from earlier work

For `Cc1ccc(=O)n(-c2ccccc2)c1` [Pirfenidone, 5-methyl-1-phenyl-2-(1H)-pyridone], the “concentration of Pirfenidone that can be dissolved” value [1] is given as about 25 % by weight and the solubility in water [2] is given as “slightly soluble in water”.
